Assay results from ChEMBL document CHEMBL1156007, “mu-Opioid/5-HT4 dual pharmacologically active agents-efforts towards an effective opioid analgesic with less GI and respiratory side effects (Part I)” (Bioorg Med Chem Lett, 2009).

How the values were obtained:
[1] = molecular target: T1, 5-hydroxytryptamine receptor 3A (Homo sapiens, UniProt P46098); test: Displacement of [3H]granisetron from human recombinant 5-HT3 receptor expressed in HEK293 cells; assay type: cell-based
T1 sequence (P46098 whole entry): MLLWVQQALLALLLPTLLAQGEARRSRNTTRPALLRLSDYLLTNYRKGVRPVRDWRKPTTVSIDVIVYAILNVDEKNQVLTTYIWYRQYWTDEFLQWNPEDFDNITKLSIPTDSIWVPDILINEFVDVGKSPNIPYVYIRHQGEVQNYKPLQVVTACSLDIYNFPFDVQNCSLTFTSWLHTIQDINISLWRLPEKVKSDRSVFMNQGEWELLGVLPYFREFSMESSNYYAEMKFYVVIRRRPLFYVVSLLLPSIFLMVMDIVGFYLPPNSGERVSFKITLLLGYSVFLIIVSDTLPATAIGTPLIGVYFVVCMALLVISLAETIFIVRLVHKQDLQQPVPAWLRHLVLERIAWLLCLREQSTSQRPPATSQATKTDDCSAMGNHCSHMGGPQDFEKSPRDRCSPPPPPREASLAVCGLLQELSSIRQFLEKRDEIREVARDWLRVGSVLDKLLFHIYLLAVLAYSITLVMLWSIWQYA

[2] = molecular target: T2, 5-hydroxytryptamine receptor 4 (Homo sapiens, UniProt Q13639); test: Displacement of [3H]GR-113808 from human recombinant 5-HT4 receptor
T2 sequence (Q13639 whole entry): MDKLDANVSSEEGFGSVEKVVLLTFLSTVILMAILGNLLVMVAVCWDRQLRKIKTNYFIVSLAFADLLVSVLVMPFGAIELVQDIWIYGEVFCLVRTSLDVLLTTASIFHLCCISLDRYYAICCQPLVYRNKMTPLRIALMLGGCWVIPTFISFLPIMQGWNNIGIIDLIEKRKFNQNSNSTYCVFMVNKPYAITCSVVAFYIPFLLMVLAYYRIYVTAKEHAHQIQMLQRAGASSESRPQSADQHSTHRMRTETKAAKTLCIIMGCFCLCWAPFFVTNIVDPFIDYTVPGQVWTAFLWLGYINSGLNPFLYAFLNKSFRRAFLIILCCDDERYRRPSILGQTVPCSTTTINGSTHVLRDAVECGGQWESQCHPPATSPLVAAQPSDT

Mu-type opioid receptor = Mu-type opioid receptor (Homo sapiens, UniProt P35372); test: Binding affinity to human mu opioid receptor
Mu-type opioid receptor, sequence (P35372 whole entry): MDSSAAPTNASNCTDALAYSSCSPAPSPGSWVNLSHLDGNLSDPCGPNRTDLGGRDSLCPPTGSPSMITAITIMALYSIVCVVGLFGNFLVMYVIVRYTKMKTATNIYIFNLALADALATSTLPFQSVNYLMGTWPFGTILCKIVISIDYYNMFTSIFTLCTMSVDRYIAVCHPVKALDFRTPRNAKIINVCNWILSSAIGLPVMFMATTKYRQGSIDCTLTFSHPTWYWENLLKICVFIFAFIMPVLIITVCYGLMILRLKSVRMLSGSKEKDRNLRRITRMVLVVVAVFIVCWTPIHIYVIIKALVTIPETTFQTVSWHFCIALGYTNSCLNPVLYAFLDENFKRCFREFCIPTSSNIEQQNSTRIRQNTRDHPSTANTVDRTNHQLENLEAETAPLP

[3] = molecular target: T2, 5-hydroxytryptamine receptor 4; test: Agonist activity at human recombinant 5-HT4 receptor; assay type: functional
[4] = molecular target: T1, 5-hydroxytryptamine receptor 3A; test: Antagonist activity at human recombinant 5-HT3 receptor expressed in HEK293 cells; assay type: functional, cell-based

Row | Structure (SMILES) | IC50 [1] [µM] | IC50 [2] [µM] | IC50 (Mu-type opioid receptor) [µM] | EC50 [3] [µM] | EC50 [4] [µM]
1 | COc1cc(N)c(Cl)cc1C(=O)N[C@@H]1CCN(C[C@@H]2CCCC[C@@]2(O)c2cccc(O)c2)C[C@@H]1OC | 1.4 | > 10 | > 10 | – | –
2 | COc1cc(N)c(Cl)cc1C(=O)NCCN(C)C[C@@H]1CCCC[C@@]1(O)c1cccc(O)c1 | 2.5 | > 10 | 5.1 | – | –
3 | COc1cc(N)c(Cl)cc1C(=O)N[C@@H]1CCN(C[C@H]2CCCC[C@]2(O)c2cccc(O)c2)C[C@@H]1OC | 1.6 | > 10 | > 10 | – | –
4 | COc1cc(N)c(Cl)cc1C(=O)NCCN(C)CC1CCCCC1(O)c1cccc(O)c1 (racemic) | 2.8 | > 10 | 0.19 | – | –
5 | COc1cccc([C@]2(O)CCCC[C@H]2CN2CC[C@@H](NC(=O)c3cc(Cl)c(N)cc3OC)[C@@H](OC)C2)c1 | 0.159 | 3.9 | > 10 | 0.12 | > 10
6 | COc1cccc([C@]2(O)CCCC[C@H]2CN(C)CCNC(=O)c2cc(Cl)c(N)cc2OC)c1 | 4.9 | > 10 | > 10 | – | –
7 | COc1cccc([C@]2(O)CCCC[C@H]2CN2CC[C@H](NC(=O)c3cc(Cl)c(N)cc3OC)[C@H](OC)C2)c1 | 1.7 | 4.6 | > 10 | – | –
8 | COc1cccc([C@@]2(O)CCCC[C@@H]2CN(C)CCNC(=O)c2cc(Cl)c(N)cc2OC)c1 | 3.5 | 5 | 4.5 | – | –
9 | COc1cc(N)c(Cl)cc1C(=O)NC1CCNCC1OC (racemic) [NORCISAPRIDE] | 1.6 | 0.019 | – | 0.29 | 2.3
10 | COc1cc(N)c(Cl)cc1C(=O)N[C@H]1CCN(C[C@@H]2CCCC[C@@]2(O)c2cccc(O)c2)C[C@H]1OC | 0.018 | 9.9 | 0.41 | 0.09 | –
11 | COc1cccc([C@@]2(O)CCCC[C@@H]2CN2CC[C@@H](NC(=O)c3cc(Cl)c(N)cc3OC)[C@@H](OC)C2)c1 | 2.8 | > 10 | > 10 | – | –
12 | COc1cccc([C@@]2(O)CCCC[C@@H]2CN2CC[C@H](NC(=O)c3cc(Cl)c(N)cc3OC)[C@H](OC)C2)c1 | 0.79 | 6.1 | > 10 | – | –
13 | COc1cc(N)c(Cl)cc1C(=O)NCCN(C)C[C@H]1CCCC[C@]1(O)c1cccc(O)c1 | 3.1 | > 10 | 0.34 | – | –
14 | COc1cc(N)c(Cl)cc1C(=O)N[C@H]1CCN(C[C@H]2CCCC[C@]2(O)c2cccc(O)c2)C[C@H]1OC | 0.39 | > 10 | > 10 | – | –
